Like-named read-outs stand apart in the source and are kept apart here. Ends that are not written are not given here.
Tested on: human umbilical vein endothelial cells HUVEC-C
Format: cell-based
Excerpt: Microarray Analysis. […] Total RNA was isolated followed by reverse transcription. Purified double stranded cDNA was in vitro transcribed in the presence of biotinylated dUTP and dCTP, fragmented cRNA was hybridized to the HG-U95Av2 array (Affymetrix, Santa Clara, Calif.), followed by staining with streptavidin-phycoerythrin. Arrays were scanned and analyzed using GeneChip3.1 software. […] An average fold-induction for the three independent experiments was obtained by calculating the means of the logarithm of the individual fold-increases for each agonist.

[1] = HUVEC-C, 90 min, genes represented in FIG. 2 A-C
[2] = HUVEC-C, 90 min, higher variability, PAR1 enhanced (<1.3 fold with PAR2 agonist)
[3] = HUVEC-C, 90 min, higher variability, PAR2 enhanced (<1.3 fold with PAR1 agonist)
[4] = HUVEC-C, 90 min, higher variability, genes not induced by APC (<1.3 fold with APC)

SLIGRL [PAR2, SLIGRL]
Average fold induction, BIRC3 U45878 HUMAN INHIBITOR OF APOPTOSIS PROTEIN (IAP) 1: 1.41 fold | Average fold induction, NAB1 AF045451 NGFIA-BINDING PROTEIN: 1.38 fold | Average Induction, A1288757 qm11h01.x1 Homo sapiens cDNA [1]: 2.3 fold | Average Induction, A1670788 tz10c02.x1 Homo sapiens cDNA [1]: 1.4 fold | Average Induction, A1985272 ws06b05.x1 Homo sapiens cDNA [1]: 1.4 fold | Average Induction, A8022718 Homo sapiens m.RNA for DEPP (decidual protein induced by progesterone) [1]: 2.0 fold | Average Induction, AB004066 Homo sapiens mRNA for DEC1 [1]: 1.3 fold | Average Induction, AB014569 Homo sapiens mRNA for K1AA0669 protein [1]: 2.0 fold | Average Induction, AF017786 Homo sapiens phosphatidic acid phosphohydrolase homolog (Dri42) [1]: 1.6 fold | Average Induction, AF022375 Homo sapiens vascular endothelial growth factor mRNA [1]: 1.3 fold | Average Induction, AF039843 Homo sapiens Sprouty 2 (SPRY2) mRNA [1]: 1.8 fold | Average Induction, AF045451 Homo sapiens transcriptional regulatory protein p54 [1]: 1.4 fold | Average Induction, AF050110 Homo sapiens TGFb inducible early protein and early growth response protein alpha genes [1]: 1.4 fold | Average Induction, AF054182 Homo sapiens mitochondrial processing peptidase beta-subunit mRNA [1]: 1.3 fold | Average Induction, AF068197 Homo sapiens BCE-1 mRNA [1]: 1.8 fold | Average Induction, AF078077 Homo sapiens growth arrest and DNA-damage-inducible protein GADD45beta [1]: 1.3 fold | Average Induction, AJ005821 Homo sapiens mRNA for X-like 1 protein [1]: 1.6 fold | Average Induction, AL023584 Human DNA sequence from clone 67K17 on chromosome 6q24.1-24.3. [1]: 2.0 fold | Average Induction, AL031432 Human DNA sequence from clone 465N24 on chromosome 1p35.1-36.13. [1]: 2.6 fold | Average Induction, AL050078 Homo sapiens mRNA; cDNA DKFZp566G0746 [1]: 1.6 fold | Average Induction, AL096858 Novel human gene mapping to chomosome 1 [1]: 1.5 fold | Average Induction, Cluster Incl M22489 Human bone morphogenetic protein 2A (BMP-2A) [1]: 2.9 fold | Average Induction, Cluster Incl U12767 Human mitogen induced nuclear orphan receptor (MINOR) [1]: 3.4 fold | Average Induction, D15050 Human mRNA for transcription factor AREB6 [1]: 1.7 fold | Average Induction, D50917 Human mRNA for KIAA0127 gene [1]: 1.3 fold | Average Induction, D78579 Homo sapiens mRNA for neuron derived orphan receptor [1]: 1.4 fold | Average Induction, D86181 Homo sapiens DNA for galactocerebrosidase [1]: 1.5 fold | Average Induction, Guanine Nucleotide Exchange Factor 2 [1]: 1.4 fold | Average Induction, J02931 Human placental tissue factor (two forms) mRNA [1]: 2.7 fold | Average Induction, J04076 Human early growth response 2 protein (EGR2) mRNA [1]: 2.0 fold | Average Induction, J04111 Human c-jun proto oncogene (JUN) [1]: 1.5 fold | Average Induction, L05072 Homo sapiens interferon regulatory factor 1 gene [1]: 2.0 fold | Average Induction, L19871 Human activating transcription factor 3 (ATF3) [1]: 2.6 fold | Average Induction, L43821 Homo sapiens enhancer of filamentation (HEF1) mRNA [1]: 1.2 fold | Average Induction, M22489/FEATURE Human bone morphogenetic protein 2A (BMP-2A) [1]: 3.2 fold | Average Induction, M26683 Human interferon gamma treatment inducible mRNA [1]: 1.0 fold | Average Induction, M28211 Homo sapiens GTP-binding protein (RAB4) mRNA [1]: 2.7 fold | Average Induction, M28225 Human JE gene encoding a monocyte secretory protein [= MCP-1] [1]: 1.1 fold | Average Induction, M29039 Human transactivator (jun-B) gene [1]: 2.8 fold | Average Induction, M30474 Human kidney gamma-glutamyl transpeptidase type II mRNA [1]: 2.1 fold | Average Induction, M31516 Human decay-accelerating factor mRNA [1]: 1.9 fold | Average Induction, M36820 Human cytokine (GRO-beta) mRNA [1]: 1.6 fold | Average Induction, M59465 Human tumor necrosis factor alpha inducible protein A20 mRNA [1]: 1.3 fold | Average Induction, M60278 Human heparin-binding EGF-like growth factor mRNA [1]: 3.9 fold | Average Induction, M60721 Human homeobox gene [1]: 3.7 fold | Average Induction, M69043 Homo sapiens MAD-3 mRNA encoding 1kB-like activity [1]: 1.4 fold | Average Induction, M92843 H.sapiens zinc finger transcriptional regulator mRNA [1]: 3.4 fold | Average Induction, S81439 EGR alpha=early growth response gene alpha [1]: 1.4 fold | Average Induction, S81914 IEX-1=radiation-inducible immediate-early gene [1]: 1.2 fold | Average Induction, U04636 Human cyclooxygenase-2 (hCox-2) gene [1]: 1.3 fold | Average Induction, U07802 Human Tis1 1d gene [1]: 1.6 fold | Average Induction, U08015 Human NF-ATc mRNA [1]: 2.0 fold | Average Induction, U12767/FEATURE Human mitogen induced nuclear orphan receptor (MINOR) [1]: 3.3 fold | Average Induction, U15932 Human dual-specificity protein phosphatase [1]: 3.3 fold | Average Induction, U25997 Homo sapiens stanniocalcin precursor (STC) mRNA [1]: 1.4 fold | Average Induction, U43142 Human vascular endothelial growth factor related protein VRP [1]: 1.9 fold | Average Induction, U59863 Human TRAF-interacting protein I-TRAF mRNA [1]: 1.1 fold | Average Induction, U75697 Human transcription regulator RPD3-2B mRNA [1]: 2.6 fold | Average Induction, U79259 Human clone 23945 mRNA [1]: 1.7 fold | Average Induction, U81607 Homo sapiens gravin mRNA [1]: 1.3 fold | Average Induction, W27545 32c4 Homo sapiens cDNA [1]: 1.2 fold | Average Induction, X51345 Human jun-B mRNA for JUN-B protein [1]: 1.8 fold | Average Induction, X63741 H.sapiens pilot mRNA [1]: 3.0 fold | Average Induction, X68277 H.sapiens CL 100 mRNA for protein tyrosine phosphatase [1]: 2.8 fold | Average Induction, X75918 H.sapiens mRNA for NOT [1]: 3.3 fold | Average Induction, X89066 H.sapiens mRNA for TRPC1 protein [1]: 2.2 fold | Average Induction, X94216 H.sapiens mRNA for VEGF-C protein [1]: 2.1 fold | Average Induction, Y00630 Human mRNA for Arg-Serpin (plasminogen activator-inhibitor 2, PAI-2) [1]: 1.7 fold | Average Induction, Z25821 H.sapiens gene for mitochondrial dodecenoyl-CoA delta-isomerase [1]: 1.7 fold | Average Induction, Z48054 H.sapiens mRNA for peroxisomal targeting signal 1 (SKL type) receptor [1]: 1.9 fold | Average Induction, L13740 Human TR3 orphan receptor mRNA (HUVEC-C, 90 min, genes represented in FIG. 2 A-C, first probe set): 5.4 fold | Average Induction, L13740 Human TR3 orphan receptor mRNA (HUVEC-C, 90 min, genes represented in FIG. 2 A-C, second probe set): 5.4 fold | Average Induction, A1186701 qe82d12.x1 Homo sapiens cDNA [2]: 1.1 fold | Average Induction, A1953789 wx69d10.x1 Homo sapiens cDNA [2]: 0.9 fold | Average Induction, AF024710 Homo sapiens vascular endothelial growth factor (VEGF) [2]: 1.1 fold | Average Induction, AL035297 H.sapiens gene from PAC 747L4 [2]: 1.0 fold | Average Induction, M22299 Human T-plastin polypeptide mRNA [2]: 1.2 fold | Average Induction, U35735 Human RACH1 (RACH1) mRNA [2]: 1.1 fold | Average Induction, U87460 Human putative endothelin receptor type B-like protein mRNA [2]: 0.9 fold | Average Induction, A1038821 ox96d03.x1 Homo sapiens cDNA [3]: 2.0 fold | Average Induction, AC004475 Homo sapiens chromosome 19, cosmid F23858 [3]: 1.4 fold | Average Induction, AL049354 Homo sapiens mRNA; cDNA DKFZp566E183 [3]: 1.3 fold | Average Induction, L38696 Homo sapiens autoantigen p542 mRNA [3]: 1.3 fold | Average Induction, U27655 Human RGP3 mRNA [3]: 1.5 fold | Average Induction, U53831 Homo sapiens interferon regulatory factor 7B [3]: 1.5 fold | Average Induction, U58334 Human Bcl2, p53 binding protein Bbp/53BP2 (BBP/53BP2) mRNA [3]: 1.5 fold | Average Induction, U65093 Human msg1-related gene 1 (mrg1) mRNA [3]: 1.7 fold | Average Induction, W26851 17b12 Homo sapiens cDNA [3]: 1.6 fold | Average Induction, Y13115 Homo sapiens mRNA for serine/threonine protein kinase SAK [3]: 1.6 fold | Average Induction, Z25821 H.sapiens gene for mitochondrial dodecenoyl-CoA delta-isomerase [3]: 1.7 fold | Average Induction, AB028069 Homo sapiens mRNA for activator of S phase Kinase [4]: 2.0 fold | Average Induction, D38537 Human mRNA for protoporphyrinogen oxidase [4]: 1.6 fold | Average Induction, M83667 Human NF-IL6-beta protein [4]: 1.3 fold | Average Induction, U78082 Human RNA polymerase transcriptional regulation mediator (h-MED6) mRNA [4]: 1.3 fold | Average Induction, U85267 Homo sapiens down syndrome candidate region 1 (DSCR1) gene [4]: 2.0 fold

From patent US20040033517A1, “Compositions and methods relating to endothelial cell signaling using the protease activated receptor (PAR1)” (priority 2002, published 2004)
